{"source": "paper PMC6349869", "about": "“The palladacycle complex AJ-5 induces apoptotic cell death while reducing autophagic flux in rhabdomyosarcoma cells” (Cell Death Discovery, 2019)", "format_in_all_cases": "cell-based, human", "key": {"[1]": {"test_system": "RMS cells (RH30, AX-OH-1, RD, FL-OH-1)", "assay": "Clonogenic assay, RMS cells", "experimental": "Cells were seeded in 6-well plates and treated the following day with IC50, ½ IC50, ¼ IC50 AJ-5 and vehicle. After 24 h, 800–4000 cells were seeded in 35 mm dishes in drug-free medium. Formation of colonies were monitored and after 7–21 days cells were fixed with 3:1 methanol:acetic acid and stained with 0.5% crystal violet (Sigma Aldrich) in 100% methanol. Colonies were imaged and percentage colony area was determined using ImageJ v1.50i[58] and the plugin ColonyArea[59]. Colony area was determined for each drug concentration and expressed as a percentage of vehicletreated control."}, "[2]": {"test_system": "γH2AX, p-ATM, p-Chk2, p-p38, p21 in RH30 and RD cells", "assay": "Western blotting and immunocytochemistry of DNA damage and stress pathway proteins", "experimental": "(§1) Cells were lysed at 4 °C in whole-cell lysis buffer (0.125 M Tris-HCl pH 6.8, 4% SDS, 0.2% glycerol, 0.1% β-mercaptoethanol and a pinch of bromophenol blue) and boiled for 10 min. Proteins were resolved by SDS-PAGE (6–15% gels) and transferred to Hybond ECL membranes (Amersham, UK). The membranes were incubated with primary antibodies: rabbit polyclonal antibodies to phospho-histone H2A.X (Ser139) (#2577), phospho-chk2 (Thr68) (#221), phospho-p38 MAPK (Thr180/Tyr182) (#9211), cleaved caspase-3 (Asp175) (#9661), PARP (#9542), caspase-9 (#9502), LC3B (#2775), p38 MAPK (#9212), rabbit monoclonal antibody to cleaved caspase-7 (Asp198) (D6H1) (#8438), mouse monoclonal antibodies to phospho-ATM (Ser1981) (D6H9) (#5883), Cyclin B1 (V152) (#4135), Caspase-8 (1C12) (#9746), SQSTM1/p62 (D5L7G) (#88588) from Cell Signaling Technology (Massachusetts, USA); mouse monoclonal antibody to p53 (DO-1) (sc-126), rabbit polyclonal antibodies to p21 (C-19) (sc-397), cyclin A (H-432) (sc-751), cyclin B1 (H-433)(sc-752), PARP-1 (H-250) (sc-7150) from Santa Cruz Biotechnology (Texas, USA); rabbit polyclonal antibody to p38 MAP kinase (M0800) from Sigma Aldrich. After primary antibody incubation, membranes were incubated with goat anti-rabbit or goat anti-mouse HRP-conjugated secondary antibodies (Bio-Rad Laboratories, California, USA). Antibody reactive proteins were visualized by enhanced chemiluminescence using SuperSignal West Pico Chemiluminescent Substrate Kit (Thermo Fisher Scientific) or WesternBright ECL HRP Substrate Kit (Advansta, California, USA). Densitometry readings were obtained using ImageJ v1.50i[58] and protein expression levels were represented as a ratio of protein of interest/p38 loading control normalized to the vehicletreated control sample where appropriate. All blots are representative of at least two independent repeats.\nCells were plated on glass coverslips and treated with IC50 AJ-5 or vehicle. […] For quantification, mean fluorescence was measured from at least 20 fields of view per treatment condition and pooled from three independent repeats."}, "[3]": {"test_system": "RH30 and RD cells", "assay": "Cell cycle analysis (FACS, PI) and cyclin western blots", "experimental": "as §1, with “After primary antibody incubation, membranes were incubated with goat anti-rabbit or goat anti-mouse HRP-conjugated secondary antibodies (Bio-Rad Laboratories, California, USA). Antibody reactive proteins were visualized by enhanced chemiluminescence using SuperSignal West Pico Chemiluminescent Substrate Kit (Thermo Fisher Scientific) or WesternBright ECL HRP Substrate Kit (Advansta, California, USA).” left out, “All blots are representative of at least two independent repeats.” left out"}, "[4]": {"test_system": "LC3II in RH30 and RD cells", "assay": "LC3II western blotting", "conditions": "0.1 µM or IC50, 24 and 48 h", "experimental": "as §1, with “After primary antibody incubation, membranes were incubated with goat anti-rabbit or goat anti-mouse HRP-conjugated secondary antibodies (Bio-Rad Laboratories, California, USA). Antibody reactive proteins were visualized by enhanced chemiluminescence using SuperSignal West Pico Chemiluminescent Substrate Kit (Thermo Fisher Scientific) or WesternBright ECL HRP Substrate Kit (Advansta, California, USA).” left out, “All blots are representative of at least two independent repeats.” left out"}}, "data": [{"compound": "CC(C)c1cccc(C(C)C)c1[N+]1=Cc2cccc[c]2[Pd-2]1([Cl])[P+](CC[P+](c1ccccc1)(c1ccccc1)[Pd-2]1([Cl])[c]2ccccc2C=[N+]1c1c(C(C)C)cccc1C(C)C)(c1ccccc1)c1ccccc1", "note": "(centres unmarked) [AJ-5]", "values": [{"measurement": "Colony formation at IC50 concentrations", "setting": "[1]; 24 h treatment at IC50, colonies after 7–21 days", "value": "only a few or no RMS cell colonies formed"}, {"measurement": "Ability of RMS cells to survive and proliferate (colony area)", "setting": "[1]; 24 h treatment with ¼ IC50, ½ IC50 or IC50, colonies after 7–21 days", "value": "significantly inhibits the ability of RMS cells to survive and proliferate"}, {"measurement": "γH2AX levels", "setting": "[2]; 0.1 µM or IC50, 24 and 48 h, western blotting", "value": "dose-dependent increase"}, {"measurement": "p21 levels", "setting": "[2]; IC50 concentrations, pronounced after 24 h", "value": "increased"}, {"measurement": "Levels of phosphorylated ATM, CHK2 and p38", "setting": "[2]; western blotting", "value": "increased levels"}, {"measurement": "Cell cycle progression", "setting": "[3]; IC50, 24 and 48 h, FACS", "value": "induces a G1 cell cycle arrest"}, {"measurement": "Levels of cyclin A and cyclin B", "setting": "[3]; western blotting", "value": "decrease"}, {"measurement": "LC3II protein level", "setting": "[4]", "value": "induced in both RMS cell lines in a time- and dose-dependent manner"}]}]}
